Measurements: patent US20230089867A1, “CYCLIC PENTAMER COMPOUNDS AS PROPROTEIN CONVERTASE SUBTILISIN/KEXIN TYPE 9 (PCSK9) INHIBITORS FOR THE TREATMENT OF METABOLIC DISORDER” (Novartis AG, priority 2018, published 2023)

Target: human PCSK9 (Homo sapiens, UniProt Q8NBP7)
Assay: PCSK9 ligand binding TR-FRET assay (interference with binding of human PCSK9 to human LDLR)
Conditions: for Max % inhibition: PCSK9 FRET assay, efficacy (Amax), 100% = 1 uM unlabeled human PCSK9, 0% = DMSO; for IC50: TR-FRET, human PCSK9 Alexa Fluor 647 / human LDLR extracellular domain-Europium Kryptate, read-out: PCSK9 FRET Assay IC50
Outline: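 Threefold compound dilutions were pre-incubated 30 min with PCSK9, after which 4 nM Europium Kryptate-tagged human LDLR ectodomain was added for a further 2 h.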

Sequence of human PCSK9 (Q8NBP7 153-692): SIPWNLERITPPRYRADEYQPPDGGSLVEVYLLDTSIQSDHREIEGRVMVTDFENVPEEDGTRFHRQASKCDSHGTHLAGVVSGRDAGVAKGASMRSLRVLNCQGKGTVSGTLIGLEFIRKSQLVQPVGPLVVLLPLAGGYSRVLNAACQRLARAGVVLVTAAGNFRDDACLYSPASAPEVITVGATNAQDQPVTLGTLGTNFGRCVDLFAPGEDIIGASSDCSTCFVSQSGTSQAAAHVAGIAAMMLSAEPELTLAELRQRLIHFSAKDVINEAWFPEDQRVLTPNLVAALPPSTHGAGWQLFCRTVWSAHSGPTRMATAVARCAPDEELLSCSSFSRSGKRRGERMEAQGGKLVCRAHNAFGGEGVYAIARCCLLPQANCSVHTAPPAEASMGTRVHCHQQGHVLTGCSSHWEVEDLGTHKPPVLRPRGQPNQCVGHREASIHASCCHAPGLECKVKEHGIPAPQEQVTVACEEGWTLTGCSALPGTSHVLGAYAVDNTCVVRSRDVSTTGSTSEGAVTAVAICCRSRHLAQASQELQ
Sequence of human PCSK9 (Q8NBP7 31-152 partner limits assumed): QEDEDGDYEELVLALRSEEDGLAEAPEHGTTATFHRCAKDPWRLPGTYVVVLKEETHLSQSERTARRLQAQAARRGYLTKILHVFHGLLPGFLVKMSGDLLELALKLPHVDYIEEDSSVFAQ

SMILES	Max % inhibition [%]	IC50 [nM]
C=CC[C@@H]1CC(=O)N(Cc2ccc(C)cc2Oc2ccc(-c3cnc(CN(C)C)n3C)cc2)[C@@H](C)C(=O)N[C@@H](COC)C(=O)N(C)[C@@H](Cc2ccc(Cl)cc2)CC(=O)N[C@@H](C)[C@H](C)N(C)C1=O [Compound 107, (2S,5S,8S,12S,13S,16R)-16-allyl-8-(4-chlorobenzyl)-1-(2-(4-(2-((dimethylamino)methyl)-1-methyl-1H-imidazol-5-yl)phenoxy)-4-methylbenzyl)-5-(methoxymethyl)-2,7,12,13,14-pentamethyl-1,4,7,11,14-pentaazacyclooctadecane-3,6,10,15,18-pentaone]	100.41	1.7
COC[C@@H]1NC(=O)[C@H](C)N(Cc2ccc(Cl)cc2Oc2ccc(-n3cc(CN4CCCCC4)nn3)cc2)C(=O)C[C@@H](Cc2ccccc2)C(=O)N(C)[C@@H](C)CNC(=O)C[C@H](Cc2ccc(Cl)cc2)N(C)C1=O [Compound 128, (2S,5S,8S,13S,16R)-16-benzyl-1-(4-chloro-2-(4-(4-(piperidin-1-ylmethyl)-1H-1,2,3-triazol-1-yl)phenoxy)benzyl)-8-(4-chlorobenzyl)-5-(methoxymethyl)-2,7,13,14-tetramethyl-1,4,7,11,14-pentaazacyclooctadecane-3,6,10,15,18-pentaone]	51.35	20.4
COC[C@@H]1NC(=O)[C@H](CCN2CCOCC2)N(Cc2ccc(Cl)cc2Oc2ccc(-c3cnc(CN(C)C)n3C)cc2)C(=O)C[C@@H](Cc2ccccc2)C(=O)N(C)[C@@H](C)[C@H](C)NC(=O)C[C@H](Cc2ccc(Cl)cc2)N(C)C1=O [Compound 94, (2S,5S,8S,12S,13S,16R)-16-benzyl-1-(4-chloro-2-(4-(2-((dimethylamino)methyl)-1-methyl-1H-imidazol-5-yl)phenoxy)benzyl)-8-(4-chlorobenzyl)-5-(methoxymethyl)-7,12,13,14-tetramethyl-2-(2-morpholinoethyl)-1,4,7,11,14-pentaazacyclooctadecane-3,6,10,15,18-pentaone]	104.90	2.4
COC[C@@H]1NC(=O)[C@H](C)N(Cc2ccc(Cl)cc2Oc2ccc(-c3cnc([C@@H](C)N4CCCC4)n3C)cc2)C(=O)C[C@@H](Cc2ccccc2)C(=O)N(C)[C@H]2CCCC[C@@H]2NC(=O)C[C@H](Cc2ccc(Cl)cc2)N(C)C1=O [Compound 152, (4S,7S,10S,14R,16aS,20aS)-14-benzyl-11-(4-chloro-2-(4-(1-methyl-2-((R)-1-(pyrrolidin-1-yl)ethyl)-1H-imidazol-5-yl)phenoxy)benzyl)-4-(4-chlorobenzyl)-7-(methoxymethyl)-5,10,16-trimethylhexadecahydrobenzo[l][1,4,7,11,14]pentaazacyclooctadecine-2,6,9,12,15(3H)-pentaone]	107.64	1.2
COC[C@@H]1NC(=O)[C@H](CC(=O)N2CC3(COC3)C2)N(Cc2ccc(Cl)cc2Oc2ccc(-c3cnc(CN(C)C)n3C)cc2)C(=O)C[C@@H](Cc2ccccc2)C(=O)N(C)C2CCCCC2NC(=O)C[C@H](Cc2ccc(Cl)cc2)N(C)C1=O (stereo in doubt) [Compound 106, (4S,7S,10S,14R,16aS,20aS)-14-benzyl-11-(4-chloro-2-(4-(2-((dimethylamino)methyl)-1-methyl-1H-imidazol-5-yl)phenoxy)benzyl)-4-(4-chlorobenzyl)-7-(methoxymethyl)-5,16-dimethyl-10-(2-oxo-2-(2-oxa-6-azaspiro[3.3]heptan-6-yl)ethyl)hexadecahydrobenzo[l][1,4,7,11,14]pentaazacyclooctadecine-2,6,9,12,15(3H)-pentaone]	106.45	2
CC[C@H](c1ncc(-c2ccc(Oc3cc(Cl)ccc3CN3C(=O)C[C@@H](Cc4ccccc4)C(=O)N(C)[C@H]4CCCC[C@@H]4NC(=O)C[C@H](Cc4ccc(Cl)cc4)N(C)C(=O)[C@H](COC)NC(=O)[C@@H]3C)cc2)n1C)N(C)C [Compound 268, (4S,7S,10S,14R,16aS,20aS)-14-benzyl-11-(4-chloro-2-(4-(2-((R)-1-(dimethylamino)propyl)-1-methyl-1H-imidazol-5-yl)phenoxy)benzyl)-4-(4-chlorobenzyl)-7-(methoxymethyl)-5,10,16-trimethylhexadecahydrobenzo[l][1,4,7,11,14]pentaazacyclooctadecine-2,6,9,12,15(3H)-pentaone]	68.37	9.4
COC[C@@H]1NC(=O)[C@H](C)N(Cc2ccc(Cl)cc2Oc2ccc(-c3cnc(CN(C)C)n3C)cc2)C(=O)C[C@@H](C)C(=O)N(C)[C@H]2CCCC[C@@H]2NC(=O)C[C@H](Cc2ccc(Cl)cc2)N(C)C1=O [Compound 64, (4S,7S,10S,14R,16aS,20aS)-11-(4-chloro-2-(4-(2-((dimethylamino)methyl)-1-methyl-1H-imidazol-5-yl)phenoxy)benzyl)-4-(4-chlorobenzyl)-7-(methoxymethyl)-5,10,14,16-tetramethylhexadecahydrobenzo[l][1,4,7,11,14]pentaazacyclooctadecine-2,6,9,12,15(3H)-pentaone]	79.08	9
COC[C@@H]1NC(=O)[C@H](CCC(=O)N2CCOCC2)N(Cc2ccc(Cl)cc2Oc2ccc(-c3cnc(CN(C)C)n3C)cc2)C(=O)C[C@@H](Cc2ccccc2)C(=O)N(C)[C@H]2CCCC[C@@H]2NC(=O)C[C@H](Cc2ccc(Cl)cc2)N(C)C1=O [Compound 93, (4S,7S,10S,14R,16aS,20aS)-14-benzyl-11-(4-chloro-2-(4-(2-((dimethylamino)methyl)-1-methyl-1H-imidazol-5-yl)phenoxy)benzyl)-4-(4-chlorobenzyl)-7-(methoxymethyl)-5,16-dimethyl-10-(3-morpholino-3-oxopropyl)hexadecahydrobenzo[l][1,4,7,11,14]pentaazacyclooctadecine-2,6,9,12,15(3H)-pentaone]	96.70	6.3

Second part, the molecule after the results:

Max % inhibition [%]	IC50 [nM]	SMILES
98.16	3.1	COC[C@@H]1NC(=O)[C@H](C)N(Cc2ccccc2Oc2ccc(-c3cnc(CN(C)C)n3C)cc2)C(=O)C[C@@H](Cc2ccccc2)C(=O)N(C)[C@@H](C)CNC(=O)C[C@H](Cc2ccc(Cl)cc2)N(C)C1=O [Compound 9, (2S,5S,8S,13S,16R)-16-benzyl-8-(4-chlorobenzyl)-1-(2-(4-(2-((dimethylamino)methyl)-1-methyl-1H-imidazol-5-yl)phenoxy)benzyl)-5-(methoxymethyl)-2,7,13,14-tetramethyl-1,4,7,11,14-pentaazacyclooctadecane-3,6,10,15,18-pentaone]
96.70	4.3	COC[C@@H]1NC(=O)[C@H](C)N(Cc2c(F)ccc(F)c2Oc2ccc(-c3cnc(CN(C)C)n3C)cc2)C(=O)C[C@@H](Cc2ccccc2)C(=O)N(C)[C@@H](C)CNC(=O)C[C@H](Cc2ccc(Cl)cc2)N(C)C1=O [Compound 166, (2S,5S,8S,13S,16R)-16-benzyl-8-(4-chlorobenzyl)-1-(2-(4-(2-((dimethylamino)methyl)-1-methyl-1H-imidazol-5-yl)phenoxy)-3,6-difluorobenzyl)-5-(methoxymethyl)-2,7,13,14-tetramethyl-1,4,7,11,14-pentaazacyclooctadecane-3,6,10,15,18-pentaone]
97.63	205	COC[C@@H]1NC(=O)[C@H](C)N(Cc2ccc(Cl)cc2Oc2ccc(-c3cnc(CN(C)C)n3C)cc2)C(=O)C[C@H]2C(=O)N(C)[C@@H](CNC(=O)C[C@H](Cc3ccc(Cl)cc3)N(C)C1=O)C(=O)N2C [Compound 262, (1S,6S,9S,12S,16S)-13-(4-chloro-2-(4-(2-((dimethylamino)methyl)-1-methyl-1H-imidazol-5-yl)phenoxy)benzyl)-6-(4-chlorobenzyl)-9-(methoxymethyl)-7,12,17,19-tetramethyl-3,7,10,13,17,19-hexaazabicyclo[14.2.2]icosane-4,8,11,14,18,20-hexaone]
96.97	1	COC[C@@H]1NC(=O)[C@H](C)N(Cc2ccc(Cl)cc2Oc2ccc(-c3cnc(CN4CCC4)n3C)cc2)C(=O)C[C@@H](Cc2ccccc2)C(=O)N(C)[C@@H](C)CNC(=O)C[C@H](Cc2ccc(Cl)cc2)N(C)C1=O [Compound 76, (2S,5S,8S,13S,16R)-1-(2-(4-(2-(azetidin-1-ylmethyl)-1-methyl-1H-imidazol-5-yl)phenoxy)-4-chlorobenzyl)-16-benzyl-8-(4-chlorobenzyl)-5-(methoxymethyl)-2,7,13,14-tetramethyl-1,4,7,11,14-pentaazacyclooctadecane-3,6,10,15,18-pentaone]
103.62	6.3	COC[C@@H]1NC(=O)[C@H](C)N(Cc2ccc(C(F)(F)F)cc2Oc2ccc(-c3cnc(CN4CCCC4)n3C)cc2)C(=O)C[C@@H](Cc2ccccc2)C(=O)N(C)[C@@H](C)CNC(=O)C[C@H](Cc2ccc(Cl)cc2)N(C)C1=O [Compound 80, (2S,5S,8S,13S,16R)-16-benzyl-8-(4-chlorobenzyl)-5-(methoxymethyl)-2,7,13,14-tetramethyl-1-(2-(4-(1-methyl-2-(pyrrolidin-1-ylmethyl)-1H-imidazol-5-yl)phenoxy)-4-(trifluoromethyl)benzyl)-1,4,7,11,14-pentaazacyclooctadecane-3,6,10,15,18-pentaone]
66.09	2.4	CC(O)c1ncc(-c2ccc(Oc3cc(Cl)ccc3CN3C(=O)C[C@@H](Cc4ccccc4)C(=O)N(C)[C@@H](C)CNC(=O)C[C@H](Cc4ccc(Cl)cc4)N(C)C(=O)[C@H](CO)NC(=O)[C@@H]3C)cc2)n1C (stereo partly drawn) [Compound 21, (2S,5S,8S,13S,16R)-16-benzyl-1-(4-chloro-2-(4-(2-(1-hydroxyethyl)-1-methyl-1H-imidazol-5-yl)phenoxy)benzyl)-8-(4-chlorobenzyl)-5-(hydroxymethyl)-2,7,13,14-tetramethyl-1,4,7,11,14-pentaazacyclooctadecane-3,6,10,15,18-pentaone]
